From patent publication US7399607B2, “Fluorescence polarization assays for determining clostridial toxin activity” (priority 2004, dated 2008)

Tested on: BoNT/A
Format: biochemical
Settings: not given

| Substance | depolarization during proteolysis |
| --- | --- |
| GFP-SNAP25(134-206)-His6-C-Alexa Fluor® 594 | approximately 20 mP |

Tested on: BoNT/A
Settings: cited from earlier work

| Substance | Relative Rate |
| --- | --- |
| SNKTRIDEANBRATKML [Peptide Q11B] | 0.25 |
| SNKTRIDEANQRABKML [Peptide T14B] | 1.20 |
| SNKTRIDQANQRATKML [Peptide E8Q] | 2.08 |
| SNKTRINEANQRATKML [Peptide D7N] | 0.23 |
| SNKTRIDEANQRATK [[1-15]] | 0.03 |
| SNKTRIDEANQRATKAL [Peptide M16A] | 0.38 |
| SNKTRIDEANARATKML [Peptide Q11A] | 0.19 |
| SNKTRIDEANNRATKML [Peptide Q11N] | 0.66 |
| SNKTRIDEANQRATKM [[1-16]] | 1.17 |
| SNKTRIDEANQRATKML [[1-17]] | 1.00 |
| SNKTRIDEANQRBTKML [Peptide A13B] | 0.79 |
| SNKTRIDEBNQRATKML [Peptide A9B] | 0.38 |
| SNKTRIDEANQRATAML [Peptide K15A] | 0.12 |
| SNKTRIDEANQRASKML [Peptide T14S] | 0.26 |
| SNKTRIDEAAQRATKML [Peptide N10A] | 0.06 |
| SNKTRIDEANQRATKXL [Peptide M16X] | 1.20 |
